Assay results reported in patent US10800739B2, “4-carboxamido-isoindolinone derivatives as selective PARP-1 inhibitors” (NERVIANO MEDICAL SCIENCES S.r.l, priority 2012, dated 2020).
Counter-ions that a name gives are not always drawn. Like-named read-outs stand apart in the source and are kept apart here.

What was measured:
[1] = Pharmacokinetics and oral bioavailability in the mouse; type: in vivo; details: for F on AUC: 10 mg/kg, ratio of oral to IV dose-normalized AUC; for clearance / Vd / AUC / Cmax / half-life: male, Balb Nu/Nu, plasma, mean value; for clearance / Vd: 10 mg/kg intravenous bolus; for clearance: read-out: Cl (IV bolus); for Vd: read-out: Vdss (IV bolus); for AUC / Cmax / half-life: 10 mg/kg oral; for half-life: read-out: T½ (oral) (converted)
[2] = system: hydrogen peroxide induced PAR formation in HeLa cells; assay: PAR assay: inhibition of hydrogen peroxide induced PAR formation in HeLa cells; details: Homo sapiens, read-out: PAR assay (IC50 μM)
[3] = system: Capan-1 human pancreatic cancer tumors; assay: In vivo efficacy as single agent, Capan-1 BRCA-2 mutated mouse model; details: 75 mg/kg oral daily; for Max TGI (%): single agent, Capan-1 xenograft; for Toxicity: body weight reduction, out of 7 mice treated
Description: Balb, athymic Nu/Nu male mice, from Harlan (Italy), were maintained in agreement with the European Communities Council Directive no. 86/609/EEC concerning the protection of animals used for experimental or other scientific purposes, in cages with paper filter cover, food and bedding sterilized and acidified water. Fragments of Capan-1 human pancreatic cancer tumors were implanted subcutaneously. […] Each group included seven animals. The treatment started one day after randomization. Compound of formula (I) was administered by oral route as a methocel suspension at the indicated doses and times. Tumor dimension was measured regularly by calipers during the experiments and tumor mass was calculated as described in Simeoni M. et al., Cancer Res 64, 1094-1101 (2004).

PARP-1 = PARP-1 (Homo sapiens (Human), UniProt P09874); assay: Fluorescence polarization displacement assay with probe of formula (IP), PARP-1; type: binding; details: for DC50: probe P1
Protocol: (§1) Affinity evaluation of the tested compounds and their selectivity with respect to the different PARP isoforms of interest was assessed in a displacement assay.
(§2) b) comparing the polarization signal generated in the absence of the test compound with the one generated in the presence of different concentrations of the test compound, and
(§3) c) evaluating the ability of the test compound to displace the compound of formula (IP) as defined above indicated from a decreased fluorescence polarization level.
(§4) The 5H-phenanthridin-6-one-derived probe (IP) was selected for its capability of binding to the PARP proteins, both encompassing full-length native proteins and fragments thereof.
(§5) The polarization signal can be measured, e.g., by a plate reader such as the Saphire2 (Tecan). Data analysis was performed, e.g., by using the Dynafit software. Displacement data were also fitted, e.g., by using Excel spreadsheet (Microsoft Inc. Seattle, USA) to a four parameter logistic model (4PL), or Hill-Slope model. The assay was used to test compounds of the present invention. The displacement ability of the test compounds of formula (I) is in correlation with the compounds affinity for the NAD pocket of the enzyme.

PARP-2 = PARP-2 (Homo sapiens (Human), UniProt Q9UGN5); assay: Fluorescence polarization displacement assay with probe of formula (IP), PARP-2; type: binding; details: probe P1
Protocol: as §1, §2, §3, §4, §5

PARP-3 = PARP-3 (Homo sapiens (Human), UniProt Q9Y6F1); assay: Fluorescence polarization displacement assay with probe of formula (IP), PARP-3; type: binding
Protocol: as §1, §2, §3, §4, §5

BRCA-mutated cancer = details: 19 patients with BRCA mutations and breast, ovarian and prostate cancer, phase I; cited from earlier work
[4] = probe P1; read-out: PARP-3 (DC50 μM)

Sequence of PARP-2 (Q9UGN5 whole entry): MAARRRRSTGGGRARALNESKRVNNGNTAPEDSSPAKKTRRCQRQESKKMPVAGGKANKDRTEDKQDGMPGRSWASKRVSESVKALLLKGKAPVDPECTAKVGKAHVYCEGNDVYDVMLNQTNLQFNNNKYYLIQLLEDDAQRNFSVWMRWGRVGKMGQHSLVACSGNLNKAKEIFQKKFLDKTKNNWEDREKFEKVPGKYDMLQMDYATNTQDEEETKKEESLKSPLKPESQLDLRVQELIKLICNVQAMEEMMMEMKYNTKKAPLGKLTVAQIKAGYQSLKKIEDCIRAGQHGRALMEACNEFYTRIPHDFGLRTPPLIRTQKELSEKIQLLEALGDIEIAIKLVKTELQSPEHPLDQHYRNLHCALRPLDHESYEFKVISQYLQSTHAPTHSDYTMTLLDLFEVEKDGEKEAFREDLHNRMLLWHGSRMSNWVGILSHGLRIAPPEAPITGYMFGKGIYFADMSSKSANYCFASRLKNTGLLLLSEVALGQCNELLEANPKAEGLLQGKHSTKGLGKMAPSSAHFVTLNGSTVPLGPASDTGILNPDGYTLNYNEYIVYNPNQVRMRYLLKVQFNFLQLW
Sequence of PARP-3 (Q9Y6F1 whole entry): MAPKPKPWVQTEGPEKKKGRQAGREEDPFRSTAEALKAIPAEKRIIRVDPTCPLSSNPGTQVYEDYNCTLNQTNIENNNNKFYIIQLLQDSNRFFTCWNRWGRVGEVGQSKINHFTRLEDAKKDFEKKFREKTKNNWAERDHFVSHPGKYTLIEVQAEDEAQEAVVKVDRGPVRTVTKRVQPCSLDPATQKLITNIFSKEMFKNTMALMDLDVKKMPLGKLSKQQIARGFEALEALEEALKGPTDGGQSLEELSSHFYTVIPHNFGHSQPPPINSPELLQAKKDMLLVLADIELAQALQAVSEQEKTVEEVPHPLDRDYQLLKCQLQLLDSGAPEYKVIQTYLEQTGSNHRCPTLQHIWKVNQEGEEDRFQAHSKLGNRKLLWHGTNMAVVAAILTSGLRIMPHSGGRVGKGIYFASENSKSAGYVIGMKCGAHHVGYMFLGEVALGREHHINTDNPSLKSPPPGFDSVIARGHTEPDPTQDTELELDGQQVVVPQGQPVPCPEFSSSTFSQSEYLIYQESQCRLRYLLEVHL
Sequence of PARP-1 (P09874 whole entry): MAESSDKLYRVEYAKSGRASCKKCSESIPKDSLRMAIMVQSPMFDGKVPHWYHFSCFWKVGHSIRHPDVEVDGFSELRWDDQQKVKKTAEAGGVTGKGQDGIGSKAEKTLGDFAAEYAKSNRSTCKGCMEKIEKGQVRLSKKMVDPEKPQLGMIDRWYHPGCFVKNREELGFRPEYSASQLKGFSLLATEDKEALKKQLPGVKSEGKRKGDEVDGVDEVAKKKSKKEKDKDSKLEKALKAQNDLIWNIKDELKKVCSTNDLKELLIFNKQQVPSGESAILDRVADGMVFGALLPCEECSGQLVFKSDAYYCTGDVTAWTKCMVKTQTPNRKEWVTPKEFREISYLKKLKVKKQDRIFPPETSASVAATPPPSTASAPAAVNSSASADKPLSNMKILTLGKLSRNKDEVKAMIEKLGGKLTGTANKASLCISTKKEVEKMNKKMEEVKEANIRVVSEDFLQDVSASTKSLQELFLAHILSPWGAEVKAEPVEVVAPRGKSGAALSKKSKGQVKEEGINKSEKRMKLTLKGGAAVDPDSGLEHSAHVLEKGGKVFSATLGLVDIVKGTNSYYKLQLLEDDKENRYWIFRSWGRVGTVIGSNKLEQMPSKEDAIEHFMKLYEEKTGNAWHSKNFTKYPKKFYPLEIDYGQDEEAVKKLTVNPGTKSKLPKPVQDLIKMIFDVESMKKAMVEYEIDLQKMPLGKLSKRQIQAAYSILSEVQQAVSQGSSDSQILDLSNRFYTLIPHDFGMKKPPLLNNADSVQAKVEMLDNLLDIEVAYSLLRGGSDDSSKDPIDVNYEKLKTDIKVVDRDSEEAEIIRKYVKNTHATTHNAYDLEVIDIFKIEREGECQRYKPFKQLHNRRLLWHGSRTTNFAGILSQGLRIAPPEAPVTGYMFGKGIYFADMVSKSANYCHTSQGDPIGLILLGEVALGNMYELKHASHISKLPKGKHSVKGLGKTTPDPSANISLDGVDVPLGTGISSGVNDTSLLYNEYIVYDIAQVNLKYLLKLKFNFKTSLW

## NC(=O)c1cccc2c1C(=O)N(CCN1CCc3ccccc3C1)C2 [(3), 2-[2-(3,4-dihydro-1H-isoquinolin-2-yl)-ethyl]-3-oxo-2,3-dihydro-1H-isoindole-4-carboxylic Acid Amide]
[1]
  F on AUC: 30%
  clearance: 63.1 mL/min/kg
  Vd: 1.54 L/kg
  AUC: 2.51 µM·h
  Cmax: 3.06 µM
  half-life: 40.8 min

## NC(=O)c1cccc2c1C(=O)N(C1CCN(Cc3cccs3)CC1)C2 [(9), 3-oxo-2-(1-thiophen-2-ylmethyl-piperidin-4-yl)-2,3-dihydro-1H-isoindole-4-carboxylic Acid Amide]
[2]
  IC50: 1.4 µM

## NC(=O)c1cccc2c1C(=O)N(C1CCN(C3CCCCC3)CC1)C2 [(11), 2-(1-cyclohexyl-piperidin-4-yl)-3-oxo-2,3-dihydro-1H-isoindole-4-carboxylic Acid Amide]
[3]
  Max TGI (%): 42%
  Toxicity: 0/7
PARP-1
  Kd: < 0.01 µM
  DC50: < 0.25 µM
PARP-2
  DC50: 2.53 µM
  Kd: 1.4 µM
[1]
  F on AUC: 100%
  clearance: 41.3 mL/min/kg
  Vd: 4.47 L/kg
  AUC: 20.4 µM·h
  Cmax: 3.87 µM
  half-life: 163 min
[2]
  IC50: 0.02 µM
PARP-3; [4]
  DC50: 2.06 µM

## NC(=O)c1cccc2c1C(=O)N(C1CCN(Cc3ccco3)CC1)C2 [(12), 2-(1-furan-2-ylmethyl-piperidin-4-yl)-3-oxo-2,3-dihydro-1H-isoindole-4-carboxylic Acid Amide]
[2]
  IC50: 3.9 µM

## NC(=O)c1cccc2c1C(=O)N(C1CCN(Cc3ccoc3)CC1)C2 [(14), 2-(1-furan-3-ylmethyl-piperidin-4-yl)-3-oxo-2,3-dihydro-1H-isoindole-4-carboxylic Acid Amide]
[1]
  F on AUC: 57%
  clearance: 81.8 mL/min/kg
  Vd: 2.68 L/kg
  AUC: 3.22 µM·h
  Cmax: 2.29 µM
  half-life: 53.4 min
[2]
  IC50: 0.011 µM

## NC(=O)c1cccc2c1C(=O)N(C1CCN(Cc3ccccn3)CC1)C2 [(15), 3-oxo-2-(1-pyridin-2-ylmethyl-piperidin-4-yl)-2,3-dihydro-1H-isoindole-4-carboxylic Acid Amide]
[3]
  Max TGI (%): 54%
  Toxicity: 0/7
[1]
  F on AUC: 68%
  clearance: 16.9 mL/min/kg
  Vd: 0.79 L/kg
  AUC: 19.2 µM·h
  Cmax: 8.73 µM
  half-life: 60.6 min
PARP-3; [4]
  DC50: 0.9 µM

## NC(=O)c1cccc2c1C(=O)N(C1CCN(Cc3ccc[nH]3)CC1)C2 [(16), 3-oxo-2-[1-(1H-pyrrol-2-ylmethyl)-piperidin-4-yl]-2,3-dihydro-1H-isoindole-4-carboxylic Acid Amide]
[1]
  F on AUC: 37%
  clearance: 79.3 mL/min/kg
  Vd: 2.51 L/kg
  AUC: 2.13 µM·h
  Cmax: 2.97 µM
  half-life: 37.8 min
[2]
  IC50: 0.02 µM

## NC(=O)c1cccc2c1C(=O)N(CCCc1ccccc1)C2 [(17), 3-oxo-2-(3-phenyl-propyl)-2,3-dihydro-1H-isoindole-4-carboxylic Acid Amide]
[2]
  IC50: 1.51 µM

## NC(=O)c1cccc2c1C(=O)N(CCCN1CCc3ccccc3C1)C2 [(19), 2-[3-(3,4-dihydro-1H-isoquinolin-2-yl)-propyl]-3-oxo-2,3-dihydro-1H-isoindole-4-carboxylic Acid Amide]
PARP-1
  Kd: < 0.03 µM
  DC50: < 0.25 µM
[2]
  IC50: 0.33 µM

## NC(=O)c1cccc2c1C(=O)N(CCCN1CCCc3ccccc31)C2 [(20), 2-[3-(3,4-dihydro-2H-quinolin-1-yl)-propyl]-3-oxo-2,3-dihydro-1H-isoindole-4-carboxylic Acid Amide]
PARP-1
  Kd: < 0.03 µM
  DC50: < 0.25 µM
PARP-2
  DC50: 0.58 µM
  Kd: 0.19 µM
[2]
  IC50: 0.83 µM

## CN1CCN(CCCN2Cc3cccc(C(N)=O)c3C2=O)CC1 [(21), 2-[3-(4-methyl-piperazin-1-yl)-propyl]-3-oxo-2,3-dihydro-1H-isoindole-4-carboxylic Acid Amide]
PARP-1
  DC50: 0.28 µM
[2]
  IC50: 0.6 µM

## NC(=O)c1cccc2c1C(=O)N(CCCN1CCN(c3ccccc3)CC1)C2 [(22), 3-oxo-2-[3-(4-phenyl-piperazin-1-yl)-propyl]-23-dihydro-1H-isoindole-4-carboxylic Acid Amide]
PARP-1
  Kd: < 0.03 µM
  DC50: < 0.25 µM
PARP-2
  DC50: 2.12 µM
[2]
  IC50: 0.4 µM

## NC(=O)c1cc(F)cc2c1C(=O)N(CCCN1CCOCC1)C2 [(23), 6-Fluoro-2-(3-morpholin-4-yl-propyl)-3-oxo-2,3-dihydro-1H-isoindole-4-carboxylic Acid Amide]
PARP-1
  Kd: < 0.03 µM
  DC50: < 0.25 µM
PARP-2
  DC50: 2 µM
[2]
  IC50: 0.4 µM

## NC(=O)c1cccc2c1C(=O)N(C1CCN(CC3CC3)CC1)C2 [(24), 2-(1-cyclopropylmethyl-piperidin-4-yl)-3-oxo-2,3-dihydro-1H-isoindole-4-carboxylic Acid Amide]
[2]
  IC50: 0.11 µM

## CC1CCCC(C)N1CCCN1Cc2cccc(C(N)=O)c2C1=O (stereo not shown) [(27), 2-[3-(2,6-dimethyl-piperidin-1-yl)-propyl]-3-oxo-2,3-dihydro-1H-isoindole-4-carboxylic Acid Amide Hydrochloride]
PARP-2
  DC50: > 10 µM

## NC(=O)c1cccc2c1C(=O)N(C1CCN(C3CCOCC3)CC1)C2 [(28), 3-ox-2-[1-(tetrahydro-pyran-4-yl)-piperidin-4-yl]-2,3-dihydro-1H-isoindole-4-carboxylic Acid Amide]
PARP-3; [4]
  DC50: 5.48 µM

## NC(=O)c1cc(F)cc2c1C(=O)N(C1CCN(C3CCCCC3)CC1)C2 [(29), 2-(1-cyclohexyl-piperidin-4-yl)-6-fluoro-3-oxo-2,3-dihydro-1H-isoindole-4-carboxylic acid amide]
PARP-1
  Kd: < 0.01 µM
  DC50: < 0.25 µM
PARP-2
  DC50: 2.92 µM
[2]
  IC50: 0.5 µM
PARP-3; read-out: PARP-3 (DC50 μM); probe P1
  DC50: 1 µM

## NC(=O)c1cccc2c1C(=O)N(C1CCN(Cc3ccccc3)CC1)C2 [(30), 2-(1-benzyl-piperidin-4-yl)-3-oxo-2,3-dihydro-1H-isoindole-4-carboxylic Acid Amide]
PARP-1
  DC50: < 0.25 µM
PARP-3; [4]
  DC50: 0.35 µM

## NC(=O)c1cccc2c1C(=O)N(CCC1CCN(Cc3ccccc3)CC1)C2 [(31), 2-[2-(1-benzyl-piperidin-4-yl)-ethyl]-3-oxo-2,3-dihydro-1H-isoindole-4-carboxylic Acid Amide Hydrochloride]
PARP-1
  DC50: < 0.25 µM
PARP-2
  DC50: > 10 µM
[2]
  IC50: 0.2 µM

## NC(=O)c1cccc2c1C(=O)N(CCCN1CCC(Cc3ccccc3)CC1)C2 [(32), 2-[3-(4-benzyl-piperidin-1-yl)-propyl]-3-oxo-2,3-dihydro-1H-isoindole-4-carboxylic Acid Amide]
[2]
  IC50: 0.17 µM

## O=C(c1cc(Cc2n[nH]c(=O)c3ccccc23)ccc1F)N1CCN(C(=O)C2CC2)CC1 [Olaparib]
BRCA-mutated cancer
  objective response rate: 47%
